≈ marks a conversion by molar mass, not a printed value.
Target: α-glucosidase
Assay: α-glucosidase inhibition assay in 96-well plates (modified Sawada et al.)
Assay type: biochemical

Structure (SMILES) | IC50 [µg/mL]
COC1=CC(=O)c2c(cc3c(c2O)COC3)C1=O [compound 4, 5-hydroxy-2-methoxynaphtho[9–c]furan-1,4-dione] | 5.7 (≈ 23.2 µM)
COc1cccc2cc(C(C)=O)oc12 [compound 7, 2-acetyl-7-methoxybenzofuran] | 1.1 (≈ 5.78 µM)

— article PMC6950716, “Bioactive Secondary Metabolites from the Culture of the Mangrove-Derived Fungus Daldinia eschscholtzii HJ004” (Marine Drugs, 2019)
